This is an account of results in ChEMBL document CHEMBL5729761, “Polycyclic compounds as allosteric SHP2 inhibitors” (2023).

What is called IC50 is the concentration that gives 50% inhibition. Low values mean greater potency in that assay, high ones weaker potency in that assay.

SMILES strings stand for the structures.

This assay deals with T1, Tyrosine-protein phosphatase non-receptor type 11 (Homo sapiens, UniProt Q06124).
T1 sequence (Q06124 whole entry): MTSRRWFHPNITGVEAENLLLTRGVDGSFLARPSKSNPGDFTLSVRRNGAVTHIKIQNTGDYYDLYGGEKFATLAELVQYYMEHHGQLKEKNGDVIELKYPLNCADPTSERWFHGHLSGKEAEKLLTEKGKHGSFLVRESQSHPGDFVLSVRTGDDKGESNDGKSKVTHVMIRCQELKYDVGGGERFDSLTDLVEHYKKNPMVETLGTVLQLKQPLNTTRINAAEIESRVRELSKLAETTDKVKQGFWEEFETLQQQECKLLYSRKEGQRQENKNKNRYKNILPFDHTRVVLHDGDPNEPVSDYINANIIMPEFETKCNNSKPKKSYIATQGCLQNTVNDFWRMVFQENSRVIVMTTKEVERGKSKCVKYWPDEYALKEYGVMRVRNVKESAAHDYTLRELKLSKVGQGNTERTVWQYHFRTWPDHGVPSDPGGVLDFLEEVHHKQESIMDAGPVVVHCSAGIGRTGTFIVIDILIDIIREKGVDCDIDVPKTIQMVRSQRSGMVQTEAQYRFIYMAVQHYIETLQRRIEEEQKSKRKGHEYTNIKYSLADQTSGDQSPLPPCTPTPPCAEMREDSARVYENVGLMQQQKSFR
The experiment in a line: SHP2 Allosteric Inhibition Assay: The inhibition of SHP2 by compounds of the invention (concentrations varying from 0.00005-10 μM) was monitored using an assay in which 0.2 nM of SHP2 was incubated with 0.5 μM of Activating Peptide 1 (sequence: H2N LN(pY)IDLDLV(dPEG8)LST(pY)ASINFQK-amide) or Activating Peptide 2 (sequence: H2N-LN(pY)AQLWHA(dPEG8)LTI(pY)ATIRRF-amide). After 30-60-minutes incubation at 25° C., the surrogate substrate DiFMUP (Invitrogen, Cat #D6567) was added to the reaction and activity was determined by a kinetic read using a microplate reader (Envision, Perkin-Elmer or Spectramax M5, Molecular Devices). The excitation and emission wavelengths were 340 nm and 450 nm, respectively. Initial rates were determined from a linear fit of the data, and the inhibitor dose response curves were analyzed using normalized IC50 regression curve fitting with control based normalization.

On to `Cc1nc(N2CCC3(CC2)CO[C@@H](C)[C@H]3N)n2ccnc2c1-c1ccc2nccnc2c1`, for which the half-inhibitory concentration (IC50) was < 50 nM.
